26 compounds from ChEMBL document CHEMBL3046602, “Chiral 1,5-disubstituted 1,3,5-hexahydrotriazine-2-N-nitroimine analogues as novel potent neonicotinoids: Synthesis, insecticidal evaluation and molecular docking studies” (2011) can be followed below.

The structures appear in SMILES notation.

Holding throughout (format): functional
In assay [1] the test system is Aphis medicaginis. In words: Insecticidal activity against Aphis medicaginis assessed as insect mortality at 10 mg/L measured after 72 hr post compound treatment.
For assay [2], the system named is Aphis medicaginis. In words: Insecticidal activity against Aphis medicaginis assessed as insect mortality at 100 mg/L measured after 72 hr post compound treatment.
For assay [3], the system named is Aphis medicaginis. Nature of the assay: Insecticidal activity against Aphis medicaginis assessed as insect mortality at 500 mg/L measured after 72 hr post compound treatment.

By mortality is commonly meant the percentage killed.

As for `CCOC(=O)CC(CC(=O)OCC)N1CN/C(=N\[N+](=O)[O-])N(Cc2cnc(Cl)s2)C1`, the mortality at 10 µg/mL in the assay on Aphis medicaginis [1] is not below 60%. The mortality at 100 µg/mL with Aphis medicaginis [2] is not below 70%. For the same compound, the mortality at 500 µg/mL in the assay on Aphis medicaginis [3] is not below 90%.
For `CCOC(=O)[C@H](CCSC)N1CN/C(=N\[N+](=O)[O-])N(Cc2ccc(Cl)nc2)C1`, in the assay with Aphis medicaginis [2], the mortality at 100 µg/mL is not below 60%. Also, the mortality at 500 µg/mL with Aphis medicaginis [3] was not below 70%.
For the compound `CCOC(=O)[C@@H](c1ccc(Cl)cc1)N1CN/C(=N\[N+](=O)[O-])N(Cc2ccc(Cl)nc2)C1`, the mortality at 10 µg/mL with Aphis medicaginis [1] is not below 50%. In addition, the mortality at 100 µg/mL in the assay with Aphis medicaginis [2] was not below 60%. The mortality at 500 µg/mL with Aphis medicaginis [3] was not below 70%.
Regarding `CCOC(=O)[C@H](C)N1CN/C(=N\[N+](=O)[O-])N(Cc2ccc(Cl)nc2)C1`, in the assay on Aphis medicaginis [1], the mortality at 10 µg/mL was not below 50%. The mortality at 100 µg/mL with Aphis medicaginis [2] was not below 60%. In addition, in the assay with Aphis medicaginis [3], the mortality at 500 µg/mL was not below 70%.
For `CCOC(=O)[C@H](CCSC)N1CN/C(=N\[N+](=O)[O-])N(Cc2cnc(Cl)s2)C1`, in the assay on Aphis medicaginis [1], the mortality at 10 µg/mL was not below 50%. In addition, the mortality at 100 µg/mL with Aphis medicaginis [2] is not below 60%. Moreover, the mortality at 500 µg/mL with Aphis medicaginis [3] is not below 90%.
Take `CCOC(=O)[C@H]([C@@H](C)CC)N1CN/C(=N\[N+](=O)[O-])N(Cc2ccc(Cl)nc2)C1`: the mortality at 10 µg/mL in the assay with Aphis medicaginis [1] was not below 60%. The mortality at 100 µg/mL in the assay on Aphis medicaginis [2] was not below 80%. For the same compound, the mortality at 500 µg/mL with Aphis medicaginis [3] is not below 80%.
`CCOC(=O)[C@H](Cc1ccccc1)N1CN/C(=N\[N+](=O)[O-])N(Cc2cnc(Cl)s2)C1`: the mortality at 100 µg/mL in the assay on Aphis medicaginis [2] was not below 60%. Besides, the mortality at 500 µg/mL in the assay with Aphis medicaginis [3] is not below 70%.
Regarding `CCOC(=O)[C@@H](c1ccc(Cl)cc1)N1CN/C(=N\[N+](=O)[O-])N(Cc2cnc(Cl)s2)C1`, the mortality at 10 µg/mL in the assay on Aphis medicaginis [1] was not below 90%. The mortality at 100 µg/mL in the assay with Aphis medicaginis [2] is 100%. In addition, in the assay on Aphis medicaginis [3], the mortality at 500 µg/mL worked out at 100%.
Regarding `CCOC(=O)[C@H](CC(C)C)N1CN/C(=N\[N+](=O)[O-])N(Cc2ccc(Cl)nc2)C1`, the mortality at 10 µg/mL in the assay with Aphis medicaginis [1] was not below 70%. For the same compound, the mortality at 100 µg/mL with Aphis medicaginis [2] is not below 80%. Besides, the mortality at 500 µg/mL in the assay with Aphis medicaginis [3] stood at 100%.
On to `O=[N+]([O-])/N=C1\NCCN1Cc1ccc(Cl)nc1` [IMIDACLOPRID], for which the mortality at 10 µg/mL in the assay on Aphis medicaginis [1] was 100%. Moreover, the mortality at 100 µg/mL with Aphis medicaginis [2] turned out to be 100%. For the same compound, the mortality at 500 µg/mL with Aphis medicaginis [3] is 100%.
With `CCOC(=O)[C@H](CC(C)C)N1CN/C(=N\[N+](=O)[O-])N(Cc2cnc(Cl)s2)C1`, the mortality at 10 µg/mL in the assay on Aphis medicaginis [1] is not below 80%. Moreover, the mortality at 100 µg/mL in the assay with Aphis medicaginis [2] stood at 100%. Moreover, the mortality at 500 µg/mL in the assay on Aphis medicaginis [3] was 100%.
For `CCOC(=O)CCCN1CN/C(=N\[N+](=O)[O-])N(Cc2cnc(Cl)s2)C1`, the mortality at 10 µg/mL in the assay with Aphis medicaginis [1] is not below 80%. In the assay on Aphis medicaginis [2], the mortality at 100 µg/mL turned out to be 100%. Also, the mortality at 500 µg/mL with Aphis medicaginis [3] turned out to be 100%.
Regarding `CCOC(=O)[C@H](C(C)C)N1CN/C(=N\[N+](=O)[O-])N(Cc2cnc(Cl)s2)C1`, the mortality at 10 µg/mL in the assay on Aphis medicaginis [1] is not below 50%. The mortality at 100 µg/mL in the assay on Aphis medicaginis [2] is not below 60%. In addition, the mortality at 500 µg/mL with Aphis medicaginis [3] was not below 80%.
Regarding `CCOC(=O)C[C@@H](C(=O)OCC)N1CN/C(=N\[N+](=O)[O-])N(Cc2ccc(Cl)nc2)C1`, the mortality at 10 µg/mL in the assay on Aphis medicaginis [1] was not below 60%. Besides, the mortality at 100 µg/mL in the assay with Aphis medicaginis [2] was not below 70%. In the assay on Aphis medicaginis [3], the mortality at 500 µg/mL was not below 90%.
For `CCOC(=O)CN1CN/C(=N\[N+](=O)[O-])N(Cc2ccc(Cl)nc2)C1`, in that order: not below 60%, not below 70% and not below 80%.
Consider `CCOC(=O)CCN1CN/C(=N\[N+](=O)[O-])N(Cc2ccc(Cl)nc2)C1`, for which the mortality at 10 µg/mL with Aphis medicaginis [1] was not below 70%. Moreover, the mortality at 100 µg/mL in the assay with Aphis medicaginis [2] is not below 80%. Moreover, the mortality at 500 µg/mL in the assay on Aphis medicaginis [3] was found to be 100%.
In the case of `CCOC(=O)[C@H](C)N1CN/C(=N\[N+](=O)[O-])N(Cc2cnc(Cl)s2)C1`, the mortality at 10 µg/mL with Aphis medicaginis [1] was not below 60%. In the assay on Aphis medicaginis [2], the mortality at 100 µg/mL is not below 60%. Moreover, in the assay on Aphis medicaginis [3], the mortality at 500 µg/mL is not below 80%.
As for `CCOC(=O)C[C@@H](C(=O)OCC)N1CN/C(=N\[N+](=O)[O-])N(Cc2cnc(Cl)s2)C1`, the mortality at 10 µg/mL with Aphis medicaginis [1] was not below 70%. Further, the mortality at 100 µg/mL with Aphis medicaginis [2] was not below 80%. For the same compound, the mortality at 500 µg/mL in the assay with Aphis medicaginis [3] is not below 90%.
With `CCOC(=O)CCN1CN/C(=N\[N+](=O)[O-])N(Cc2cnc(Cl)s2)C1`, the mortality at 10 µg/mL in the assay with Aphis medicaginis [1] is not below 60%. In the assay on Aphis medicaginis [2], the mortality at 100 µg/mL was not below 70%. In addition, the mortality at 500 µg/mL in the assay on Aphis medicaginis [3] was 100%.
For `CCOC(=O)[C@H](C(C)C)N1CN/C(=N\[N+](=O)[O-])N(Cc2ccc(Cl)nc2)C1`, the mortality at 10 µg/mL in the assay with Aphis medicaginis [1] is not below 60%. For the same compound, the mortality at 100 µg/mL in the assay with Aphis medicaginis [2] was not below 70%. Also, the mortality at 500 µg/mL in the assay on Aphis medicaginis [3] is not below 80%.
On the same counts, the results for `CN1COCN(Cc2cnc(Cl)s2)/C1=N\[N+](=O)[O-]` [THIAMETHOXAM] are 100%, 100% and 100%.
For the compound `CCOC(=O)CC(CC(=O)OCC)N1CN/C(=N\[N+](=O)[O-])N(Cc2ccc(Cl)nc2)C1`, the mortality at 10 µg/mL in the assay with Aphis medicaginis [1] was not below 60%. For the same compound, the mortality at 100 µg/mL in the assay with Aphis medicaginis [2] was not below 70%. Moreover, in the assay on Aphis medicaginis [3], the mortality at 500 µg/mL was 100%.
Consider `CCOC(=O)CCCN1CN/C(=N\[N+](=O)[O-])N(Cc2ccc(Cl)nc2)C1`, for which the mortality at 10 µg/mL with Aphis medicaginis [1] was not below 80%. The mortality at 100 µg/mL with Aphis medicaginis [2] was determined as 100%. For the same compound, the mortality at 500 µg/mL in the assay on Aphis medicaginis [3] turned out to be 100%.
As to `CCOC(=O)CN1CN/C(=N\[N+](=O)[O-])N(Cc2cnc(Cl)s2)C1`, the mortality at 10 µg/mL in the assay on Aphis medicaginis [1] was not below 60%. Also, the mortality at 100 µg/mL in the assay on Aphis medicaginis [2] is not below 70%. Besides, the mortality at 500 µg/mL in the assay with Aphis medicaginis [3] was not below 80%.
With `CCOC(=O)[C@H]([C@@H](C)CC)N1CN/C(=N\[N+](=O)[O-])N(Cc2cnc(Cl)s2)C1`, the mortality at 10 µg/mL with Aphis medicaginis [1] was not below 50%. In the assay with Aphis medicaginis [2], the mortality at 100 µg/mL was not below 60%. The mortality at 500 µg/mL in the assay with Aphis medicaginis [3] is not below 80%.
In the case of `CCOC(=O)[C@H](Cc1ccccc1)N1CN/C(=N\[N+](=O)[O-])N(Cc2ccc(Cl)nc2)C1`, in the assay on Aphis medicaginis [1], the mortality at 10 µg/mL was not below 50%. In addition, in the assay with Aphis medicaginis [2], the mortality at 100 µg/mL is not below 60%. Moreover, in the assay with Aphis medicaginis [3], the mortality at 500 µg/mL is not below 70%.
